Test results published in patent US9078928B2, “Conjugated molecules comprising a peptide derived from the CD4 receptor coupled to a polyanionic polypeptide for the treatment of AIDS” (Institut Pasteur, priority 2011, dated 2015).

Columns and labels:
Format in all cases: cell-based
X4-tropic HIV-1-LAI = assay: Antiviral assay in PHA-P-activated PBMC, RT activity in supernatant at day 7 (Example 3); conditions: mean of triplicate; for ED70 VIH-1-LAI(X4) Average: effective dose to inhibit 70% of HIV-1 replication; for ED90 VIH-1-LAI(X4) Average: effective dose to inhibit 90% of HIV-1 replication
Description: The antiviral experiment have been performed as described in WO/2009/098147 and Nature Chemical Biology, 2009, 5(10), 743-748.
(§1) Briefly, the X4-tropic HIV-1-LAI (Barre-Sinoussi, Science 220, 868-71, 1983) or the R5-tropic HIV-1/Ba-L (Gartner et al, Science 233, 215-9, 1986) strains were amplified and titrated in vitro on Phytohemaglutinin-P (PHA-P)-activated peripheral blood mononuclear cells (PBMC). Tissue culture infectious doses were calculated using Kärber's formula (Kärber, Arch. Exp. Path. Pharmak. 162, 480-483, 1931). For the antiviral assay, PHA-P-activated PBMC were pre-treated for 30 minutes with six concentrations of each drug (1:5 dilutions between 0.5 μM and 160 pM) and infected with one hundred 50% tissue culture infectious doses (TCID50) of either the X4-tropic LAI or R5-tropic Ba-L strain. Drugs were maintained throughout the culture, and cell supernatants were collected at day 7 post-infection and stored at −20° C. Azidothymidine (AZT) was used in these experiments as an internal control. Viral replication was measured by quantifying reverse transcriptase (RT) activity in cell culture supernatants using the RetroSys HIV RT kit (Innovagen). In parallel, cytotoxicity of the samples was evaluated in uninfected PHA-P-activated PBMC by a methyltetrazolium salt (MTT) assay on day 7. Experiments were performed in triplicate and 50, 70 and 90% effective doses and cytotoxic doses were calculated using SoftMaxPro software.
PHA-P-activated PBMC were treated with each of the drug under investigation (1:5 dilutions between 0.5 μM and […]) and infected with 100 TCID50 of either HIV-1-LAI (X4 tropic) or /Ba-L (R5 tropic) strain. Molecules and viruses were maintained throughout the culture, and cell supernatants were collected at day 7 post-infection from which reverse transcriptase activity was quantified. Experiments were performed in triplicate and 50, 70 and 90% effective doses (ED), in nM (±S.D.) were calculated using SoftMaxPro software.

R5-tropic HIV-1/Ba-L = assay: as above; conditions: mean of triplicate; for ED70 VIH-1/Ba-L(R5) Average: effective dose to inhibit 70% of HIV-1 replication; for ED90 VIH-1/Ba-L(R5) Average: effective dose to inhibit 90% of HIV-1 replication
Description: as §1, with “For the antiviral assay, PHA-P-activated PBMC were pre-treated for 30 minutes with six concentrations of each drug (1:5 dilutions between 0.5 μM and 160 pM) and infected with one hundred 50% tissue culture infectious doses (TCID50) of either the X4-tropic LAI or R5-tropic Ba-L strain.” left out
Molecules and viruses were maintained throughout the culture, and cell supernatants were collected at day 7 post-infection from which reverse transcriptase activity was quantified. Experiments were performed in triplicate and 50, 70 and 90% effective doses (ED), in nM (±S.D.) were calculated using SoftMaxPro software.

clinical HIV-1 isolates = assay: Antiviral assay on the series of clinical HIV-1 isolates, summary in text (Example 4); conditions: primary strains of Table 5
Excerpt: The antiviral assay was extended to a series of more clinically relevant primary strains, including 92UG029, SF162, 92US723, 96USHIPS4, 92HT599 and 98IN017.
Phytohemagglutinin (PHA)-P-activated PBMCs were infected either with the reference lymphotropic HIV-1/LAI strain (Barre-Sinoussi, et al., 1983) or with the reference macrophage-tropic HIV-1/Ba-L strain (Gartner, et al., 1986). These viruses were amplified in vitro with PHA-P-activated blood mononuclear cells. Viral stocks (including clinical isolates) were titrated using PHA-P-activated PBMCs, and 50% tissue culture infectious doses (TCID50) were calculated using Kärber's formula (Kärber, 1931). Viruses (125 TCID50) were incubated for 30 min with five concentrations (1:5 dilutions between 500 nM and 320 pM) of each of the molecules to be tested and added to 150 000 PBMCs (m.o.i.˜0.001). […] Viral replication was measured by quantifying reverse transcriptase (RT) activity in the cell culture supernatants using the Lenti RT Activity Kit (Cavisi) and AZT was used as reference anti-HIV-1 molecule. In parallel, cytotoxicity was evaluated on day 7 in uninfected PHA-P-activated PBMC using a colorimetric methyl-tetrazolium salt (MTS/PMS) assay (Promega). Experiments were performed in triplicate and 50, 70 and 90% effective doses (ED) were calculated using SoftMaxPro software.

Question: What does the source list for “NH2-(CH2)3-CO-S-Asu-D-Asu-S-Asu-D-Asu-F-Asu-F-D-Asu-S [P3Asu]”?
Answer: ED70 VIH-1-LAI(X4) Average (X4-tropic HIV-1-LAI): >500 nM; ED90 VIH-1-LAI(X4) Average (X4-tropic HIV-1-LAI): >500 nM; ED70 VIH-1/Ba-L(R5) Average (R5-tropic HIV-1/Ba-L): >500 nM; ED90 VIH-1/Ba-L(R5) Average (R5-tropic HIV-1/Ba-L): >500 nM

Question: Which “antiviral activity against clinical isolates (in words)” value (clinical HIV-1 isolates) does the source give for “NH2-(CH2)3-CO-S-YSO3-D-YSO3-S-YSO3-D-YSO3-S-YSO3-D-YS03-S (SXDXSXDXSXDXS; non-natural residues) [P3YSO3]” here?
Answer: The value was “only poorly active or inactive”.

Question: Which “ED70 VIH-1-LAI(X4) Average” value (X4-tropic HIV-1-LAI) does the source give for “NH2-(CH2)3-CO-S-pF-D-pF-S-pF-D-pF-S-pF-D-pF-S [P3pF]” here?
Answer: The value was greater than 500 nM.

Question: What about the “ED90 VIH-1-LAI(X4) Average” value (X4-tropic HIV-1-LAI) of the same substance?
Answer: The value was greater than 500 nM.

Question: What about the “ED70 VIH-1/Ba-L(R5) Average” value (R5-tropic HIV-1/Ba-L) of the same substance?
Answer: The value was greater than 500 nM.

Question: What about the “ED90 VIH-1/Ba-L(R5) Average” value (R5-tropic HIV-1/Ba-L) of the same substance?
Answer: Its value is greater than 500 nM.
